Reference: paper PMC12756401, “Effect of itraconazole on pharmacokinetics of ZX-7101A tablets in healthy Chinese subjects” (Frontiers in Pharmacology, 2025)

Conditions: in vivo
Procedure: This single center, open label, fixed sequence trial consisted of two stages. Stage 1 was single oral administration of ZX-7101A tablets to the subjects under fasting condition, while Stage 2 included coadministration of ZX-7101A tablets and itraconazole capsules. Participants took ZX-7101A tablets 40 mg orally under fasting condition in the morning on D1 of Stage 1 and D31 of Stage 2. In drug-drug interaction clinical trials, the selected dose of the precipitant drug should maximize the potential to identify drug-drug interaction in the context of safety (i.e., achieving an exposure level close to the highest clinically recommended dose). […] The PK of itraconazole is influenced by its formulation, food intake, and gastrointestinal pH ([Liu et al., 2016]; [Allen et al., 2015]). […] Therefore, in this study, itraconazole was administered orally after meals to achieve maximum clinical exposure. Therefore, from D26 to D50 of Stage 2, the participants took 200 mg itraconazole capsules once daily for 25 consecutive days within 30 min after eating a standard breakfast (coadministration with ZX-7101A at the same time in the morning of D31 under fasting condition). […]
The safety of subjects was assessed in terms of adverse events (AEs) and serious adverse events (SAEs) after administration based on the findings of physical examination, vital signs, ECG, and laboratory tests.

## CCC(C)n1ncn(-c2ccc(N3CCN(c4ccc(OCC5COC(Cn6cncn6)(c6ccc(Cl)cc6Cl)O5)cc4)CC3)cc2)c1=O (centres unmarked) [Itraconazole, itraconazole]
human
  TEAE: COVID-19: 0 n (%)
  drug-related TEAE: None of the subjects developed any drug-related TEAE
